Source: BindingDB's records for doi:10.1007/bf00506193 (1984)

Molecular target: T1, Alpha-1A adrenergic receptor (Rattus norvegicus, UniProt P43140)
T1 sequence (P43140 whole entry): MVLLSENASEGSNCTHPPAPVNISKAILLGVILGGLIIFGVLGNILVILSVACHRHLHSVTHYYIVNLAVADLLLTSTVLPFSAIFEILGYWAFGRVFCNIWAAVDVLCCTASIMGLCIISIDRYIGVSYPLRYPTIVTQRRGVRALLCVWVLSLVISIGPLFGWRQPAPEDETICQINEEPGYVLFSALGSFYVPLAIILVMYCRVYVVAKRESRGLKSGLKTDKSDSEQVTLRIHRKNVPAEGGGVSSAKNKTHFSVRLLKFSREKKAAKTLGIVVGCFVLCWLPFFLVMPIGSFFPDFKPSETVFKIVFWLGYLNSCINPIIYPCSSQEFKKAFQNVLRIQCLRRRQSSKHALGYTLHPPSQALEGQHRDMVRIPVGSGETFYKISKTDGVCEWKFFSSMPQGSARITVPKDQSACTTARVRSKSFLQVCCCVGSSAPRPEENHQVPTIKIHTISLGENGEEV

## c1ccc2c(c1)OCC(C1=NCCN1)O2 (stereo unspecified)
  Ki: 91 nM
